Assay results taken from ChEMBL document CHEMBL1201862, “PubChem BioAssay data set” (2004).
Activity calls are given as the source filed them.

Columns and labels:
[1] = biological target: Intestinal-type alkaline phosphatase (Mus musculus, UniProt P24822); assay: PubChem AID 488785; assay type: functional
[2] = biological target: Intestinal-type alkaline phosphatase (Homo sapiens, UniProt P09923); assay: inhibition of human intestinal alkaline phosphatase – biochemical, dose response (AID 488876); assay type: functional
Troponin, cardiac muscle = Troponin, cardiac muscle (Homo sapiens, UniProt P19429+P45379+P63316); assay: compounds desensitizing RTF to calcium – biochemical, fluorescence, cardiac regulated thin filaments, triplicate IC50, dose response (AID 504742); assay type: protein-complex assay
[3] = viability loss in HeLa cells – cytotoxicity control for MgcRacGAP inhibitor project, dose response (AID 624300); assay type: functional
[4] = biological target: 1-phosphatidylinositol 4,5-bisphosphate phosphodiesterase beta-3 (Homo sapiens, UniProt Q01970); assay: Fluorescence-based biochemical high throughput dose response assay to identify inhibitors of phospholipase C isozymes (PLC-B3).
[5] = biological target: Lysine-specific demethylase 4C (Homo sapiens, UniProt Q9H3R0); assay: inhibition of JMJD2C H3K9me3 demethylation – biochemical, DELFIA europium, cherry-picked samples, dose response (AID 488835); assay type: functional
[6] = biological target: Lysine-specific demethylase 4A (Homo sapiens, UniProt O75164); assay: inhibition of JMJD2A H3K9me3 demethylation – biochemical, DELFIA europium, cherry-picked samples, selectivity assay for GASC-1 inhibitor project, dose response (AID 488840)
[7] = biological target: T1, Histone-lysine N-methyltransferase NSD2 (Homo sapiens, UniProt O96028); assay type: biochemical
T1 sequence (O96028 whole entry): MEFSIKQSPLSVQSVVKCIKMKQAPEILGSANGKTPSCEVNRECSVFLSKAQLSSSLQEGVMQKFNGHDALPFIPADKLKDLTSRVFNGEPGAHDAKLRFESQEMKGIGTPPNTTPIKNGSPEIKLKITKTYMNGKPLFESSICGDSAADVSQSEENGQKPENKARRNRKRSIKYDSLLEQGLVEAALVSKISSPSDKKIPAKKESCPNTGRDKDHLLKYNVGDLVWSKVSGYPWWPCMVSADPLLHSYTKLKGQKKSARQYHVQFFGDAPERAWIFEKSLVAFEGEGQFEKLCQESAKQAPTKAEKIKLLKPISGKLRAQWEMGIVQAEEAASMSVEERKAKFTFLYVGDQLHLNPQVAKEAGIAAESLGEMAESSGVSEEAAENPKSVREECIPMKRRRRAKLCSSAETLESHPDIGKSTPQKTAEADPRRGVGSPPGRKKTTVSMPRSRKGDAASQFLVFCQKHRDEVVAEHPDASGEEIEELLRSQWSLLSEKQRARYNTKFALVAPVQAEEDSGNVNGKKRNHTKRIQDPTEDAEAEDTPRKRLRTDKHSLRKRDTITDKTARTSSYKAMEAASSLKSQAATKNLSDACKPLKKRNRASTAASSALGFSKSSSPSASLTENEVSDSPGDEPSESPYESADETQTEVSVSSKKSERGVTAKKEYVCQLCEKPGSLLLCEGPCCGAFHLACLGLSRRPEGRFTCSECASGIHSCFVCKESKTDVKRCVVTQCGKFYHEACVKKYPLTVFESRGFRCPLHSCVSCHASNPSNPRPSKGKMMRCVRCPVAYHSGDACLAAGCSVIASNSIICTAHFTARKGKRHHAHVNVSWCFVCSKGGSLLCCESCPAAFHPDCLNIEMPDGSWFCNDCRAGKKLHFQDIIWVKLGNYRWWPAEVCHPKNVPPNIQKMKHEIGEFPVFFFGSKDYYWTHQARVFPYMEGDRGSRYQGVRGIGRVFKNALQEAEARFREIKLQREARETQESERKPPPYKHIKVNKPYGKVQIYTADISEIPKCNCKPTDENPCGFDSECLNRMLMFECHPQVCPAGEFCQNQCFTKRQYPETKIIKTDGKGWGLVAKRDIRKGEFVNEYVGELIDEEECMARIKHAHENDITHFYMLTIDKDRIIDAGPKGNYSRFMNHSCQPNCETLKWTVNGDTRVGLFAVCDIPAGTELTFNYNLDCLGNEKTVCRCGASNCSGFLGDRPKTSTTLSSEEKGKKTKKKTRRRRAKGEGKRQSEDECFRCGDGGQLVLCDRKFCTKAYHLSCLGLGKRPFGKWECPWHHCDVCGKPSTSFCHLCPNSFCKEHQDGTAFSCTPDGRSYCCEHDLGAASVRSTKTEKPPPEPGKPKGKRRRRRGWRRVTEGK

Jurkat = assay: blockers of NF-kB activation in T cells – Jurkat, luciferase reporter, luminescence, B- and T-cell, dose response (AID 489004); assay type: functional, cell-based; conditions: Homo sapiens;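 also: NF-kB luciferase reporter Jurkat cells stimulated with PMA plus ionomycin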
Bcl-2-related protein A1 = biological target: T2, Bcl-2-related protein A1 (Mus musculus, UniProt Q07440); assay type: functional;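 also: confirmatory dose–response counterscreen on Bfl-1, used to check hits from a UBC13 polyubiquitin inhibitor campaign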
T2 sequence (Q07440 whole entry): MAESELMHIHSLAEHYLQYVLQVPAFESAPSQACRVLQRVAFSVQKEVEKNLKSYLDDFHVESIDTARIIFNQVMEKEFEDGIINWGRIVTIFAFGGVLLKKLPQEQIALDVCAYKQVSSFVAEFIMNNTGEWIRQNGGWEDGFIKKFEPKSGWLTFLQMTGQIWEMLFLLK

INS1 = assay: INS-1E survival protection against cytokine death – cell-based, luminescence, retest, dose response (AID 449756); assay type: functional; conditions: Rattus norvegicus;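 also: cell death triggered by IL-1 beta plus TNF-alpha plus IFN-gamma mixture; protective hits raise ATP signal compared with cytokine alone wells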
[8] = off-target signal loss in HeLa-CEM21 co-culture – HeLa F-luc CTL cells, cherry-picked, counter-screen for HIV-1 Env fusion inhibitor project, dose response (AID 652040); assay type: functional, cell-based;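 also: potency for signal decrease marking cytotoxic or nonspecific inhibition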
Streptokinase A = biological target: T3, Streptokinase A (Streptococcus pyogenes serotype M1, UniProt P10520); assay: viability-normalized secreted streptokinase activity reduction – plasminogen activation absorbance, OD405, dose response (AID 1914); assay type: functional, Streptococcus pyogenes M1 GAS;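 also: secreted streptokinase activity via plasminogen activation per viability signal from cell pellet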
T3 sequence (P10520 whole entry): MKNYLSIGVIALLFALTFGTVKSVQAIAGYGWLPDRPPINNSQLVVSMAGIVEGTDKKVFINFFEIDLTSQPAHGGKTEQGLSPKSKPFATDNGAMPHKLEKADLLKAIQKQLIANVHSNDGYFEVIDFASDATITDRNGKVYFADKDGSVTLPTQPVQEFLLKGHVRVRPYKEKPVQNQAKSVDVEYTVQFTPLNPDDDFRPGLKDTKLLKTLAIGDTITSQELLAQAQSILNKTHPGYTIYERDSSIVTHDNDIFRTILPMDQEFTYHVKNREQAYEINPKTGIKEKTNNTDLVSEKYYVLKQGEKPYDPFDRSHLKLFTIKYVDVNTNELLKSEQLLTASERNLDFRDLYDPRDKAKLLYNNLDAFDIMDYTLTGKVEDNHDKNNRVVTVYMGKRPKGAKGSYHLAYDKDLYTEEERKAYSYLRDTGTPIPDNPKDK

[9] = biological target: T4, Ubiquitin-conjugating enzyme E2 N (Homo sapiens, UniProt P61088); assay type: functional;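 also: Dose-response confirmation in a TR-FRET assay detecting UBC13-driven polyubiquitin chain formation, inhibition measured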
T4 sequence (P61088 whole entry): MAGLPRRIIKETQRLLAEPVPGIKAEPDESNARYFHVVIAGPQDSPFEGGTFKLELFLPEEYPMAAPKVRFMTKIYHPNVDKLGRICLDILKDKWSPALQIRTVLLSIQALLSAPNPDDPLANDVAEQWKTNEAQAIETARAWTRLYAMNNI

1-phosphatidylinositol 4,5-bisphosphate phosphodiesterase beta-3, sequence (Q01970 whole entry): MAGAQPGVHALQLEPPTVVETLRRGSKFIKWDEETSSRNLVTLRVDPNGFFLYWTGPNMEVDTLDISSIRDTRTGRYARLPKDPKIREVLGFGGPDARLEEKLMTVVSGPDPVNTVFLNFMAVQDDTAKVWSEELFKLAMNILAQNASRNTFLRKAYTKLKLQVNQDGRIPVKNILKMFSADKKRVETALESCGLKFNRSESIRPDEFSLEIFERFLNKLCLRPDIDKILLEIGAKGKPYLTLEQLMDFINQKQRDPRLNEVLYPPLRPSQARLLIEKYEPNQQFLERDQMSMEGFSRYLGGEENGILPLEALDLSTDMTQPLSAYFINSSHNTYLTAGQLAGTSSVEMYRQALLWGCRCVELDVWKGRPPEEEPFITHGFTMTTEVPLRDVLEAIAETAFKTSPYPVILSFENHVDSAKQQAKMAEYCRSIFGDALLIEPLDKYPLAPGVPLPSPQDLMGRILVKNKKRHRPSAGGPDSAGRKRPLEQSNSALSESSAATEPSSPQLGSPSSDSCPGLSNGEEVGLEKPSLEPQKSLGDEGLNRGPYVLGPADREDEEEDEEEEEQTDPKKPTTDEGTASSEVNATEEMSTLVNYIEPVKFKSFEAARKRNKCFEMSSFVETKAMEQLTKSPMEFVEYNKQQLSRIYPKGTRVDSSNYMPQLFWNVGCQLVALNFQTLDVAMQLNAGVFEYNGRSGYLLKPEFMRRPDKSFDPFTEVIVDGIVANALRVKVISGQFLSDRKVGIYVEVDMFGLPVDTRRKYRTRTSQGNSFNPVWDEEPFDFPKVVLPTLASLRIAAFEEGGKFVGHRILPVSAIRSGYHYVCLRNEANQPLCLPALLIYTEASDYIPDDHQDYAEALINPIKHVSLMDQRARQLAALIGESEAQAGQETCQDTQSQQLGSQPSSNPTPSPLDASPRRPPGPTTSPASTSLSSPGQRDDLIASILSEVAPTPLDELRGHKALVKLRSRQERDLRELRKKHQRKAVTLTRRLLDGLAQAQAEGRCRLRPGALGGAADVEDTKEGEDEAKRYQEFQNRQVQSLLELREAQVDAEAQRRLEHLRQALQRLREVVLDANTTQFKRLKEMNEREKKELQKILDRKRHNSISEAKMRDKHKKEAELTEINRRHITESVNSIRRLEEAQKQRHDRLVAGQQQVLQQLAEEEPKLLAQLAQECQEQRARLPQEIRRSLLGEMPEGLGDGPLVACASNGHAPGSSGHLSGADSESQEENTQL
Lysine-specific demethylase 4A, sequence (O75164 whole entry): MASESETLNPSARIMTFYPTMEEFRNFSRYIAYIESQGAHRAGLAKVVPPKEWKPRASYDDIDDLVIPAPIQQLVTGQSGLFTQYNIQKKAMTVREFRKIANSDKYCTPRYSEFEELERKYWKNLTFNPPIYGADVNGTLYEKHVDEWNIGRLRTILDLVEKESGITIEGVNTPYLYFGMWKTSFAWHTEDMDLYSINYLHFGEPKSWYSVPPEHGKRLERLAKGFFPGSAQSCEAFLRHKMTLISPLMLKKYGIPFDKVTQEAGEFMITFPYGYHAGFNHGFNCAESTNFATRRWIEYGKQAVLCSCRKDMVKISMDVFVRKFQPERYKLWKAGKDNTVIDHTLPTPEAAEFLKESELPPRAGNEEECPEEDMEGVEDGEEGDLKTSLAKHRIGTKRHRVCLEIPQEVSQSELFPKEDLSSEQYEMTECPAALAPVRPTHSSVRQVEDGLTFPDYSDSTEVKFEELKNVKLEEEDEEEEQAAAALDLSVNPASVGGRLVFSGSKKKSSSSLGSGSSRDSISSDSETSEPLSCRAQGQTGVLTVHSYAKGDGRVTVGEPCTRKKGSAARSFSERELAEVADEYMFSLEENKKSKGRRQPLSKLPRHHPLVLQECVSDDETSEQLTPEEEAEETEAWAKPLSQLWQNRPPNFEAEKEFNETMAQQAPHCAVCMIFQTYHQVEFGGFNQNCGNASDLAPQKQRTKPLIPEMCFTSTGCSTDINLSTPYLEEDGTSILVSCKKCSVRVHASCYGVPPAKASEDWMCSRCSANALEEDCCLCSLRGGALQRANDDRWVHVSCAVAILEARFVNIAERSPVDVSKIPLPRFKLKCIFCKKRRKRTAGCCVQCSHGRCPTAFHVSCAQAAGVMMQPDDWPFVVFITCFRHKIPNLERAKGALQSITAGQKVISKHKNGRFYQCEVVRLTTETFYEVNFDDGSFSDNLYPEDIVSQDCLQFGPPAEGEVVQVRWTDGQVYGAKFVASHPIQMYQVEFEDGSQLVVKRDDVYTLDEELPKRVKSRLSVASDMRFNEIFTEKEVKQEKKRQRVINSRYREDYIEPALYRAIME
Lysine-specific demethylase 4C, sequence (Q9H3R0 whole entry): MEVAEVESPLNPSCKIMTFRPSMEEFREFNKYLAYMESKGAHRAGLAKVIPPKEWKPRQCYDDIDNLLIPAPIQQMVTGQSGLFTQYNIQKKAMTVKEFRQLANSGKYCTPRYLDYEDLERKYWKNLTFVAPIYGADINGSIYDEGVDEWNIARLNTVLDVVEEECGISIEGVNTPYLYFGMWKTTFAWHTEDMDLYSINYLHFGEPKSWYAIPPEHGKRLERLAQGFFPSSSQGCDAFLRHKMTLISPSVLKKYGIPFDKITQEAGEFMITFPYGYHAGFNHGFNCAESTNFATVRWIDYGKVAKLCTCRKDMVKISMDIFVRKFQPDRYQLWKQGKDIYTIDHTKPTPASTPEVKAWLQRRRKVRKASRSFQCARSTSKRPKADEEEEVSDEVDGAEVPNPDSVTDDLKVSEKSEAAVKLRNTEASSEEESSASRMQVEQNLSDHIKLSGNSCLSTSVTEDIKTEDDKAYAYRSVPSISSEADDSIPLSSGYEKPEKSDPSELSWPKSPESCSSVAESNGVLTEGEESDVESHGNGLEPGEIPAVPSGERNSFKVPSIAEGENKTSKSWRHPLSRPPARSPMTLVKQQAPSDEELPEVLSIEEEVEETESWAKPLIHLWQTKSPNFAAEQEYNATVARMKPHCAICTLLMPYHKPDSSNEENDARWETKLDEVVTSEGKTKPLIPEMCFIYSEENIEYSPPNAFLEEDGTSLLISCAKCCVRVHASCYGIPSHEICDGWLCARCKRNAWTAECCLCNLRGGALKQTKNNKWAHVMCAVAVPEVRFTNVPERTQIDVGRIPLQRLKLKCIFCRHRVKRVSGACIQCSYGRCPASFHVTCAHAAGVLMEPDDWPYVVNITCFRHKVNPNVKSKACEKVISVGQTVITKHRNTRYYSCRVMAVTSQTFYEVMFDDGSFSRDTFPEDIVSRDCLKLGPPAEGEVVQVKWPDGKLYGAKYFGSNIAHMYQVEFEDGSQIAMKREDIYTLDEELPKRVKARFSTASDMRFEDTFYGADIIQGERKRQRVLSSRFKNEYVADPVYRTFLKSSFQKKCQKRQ
Intestinal-type alkaline phosphatase (Mus musculus, UniProt P24822), sequence (P24822 whole entry): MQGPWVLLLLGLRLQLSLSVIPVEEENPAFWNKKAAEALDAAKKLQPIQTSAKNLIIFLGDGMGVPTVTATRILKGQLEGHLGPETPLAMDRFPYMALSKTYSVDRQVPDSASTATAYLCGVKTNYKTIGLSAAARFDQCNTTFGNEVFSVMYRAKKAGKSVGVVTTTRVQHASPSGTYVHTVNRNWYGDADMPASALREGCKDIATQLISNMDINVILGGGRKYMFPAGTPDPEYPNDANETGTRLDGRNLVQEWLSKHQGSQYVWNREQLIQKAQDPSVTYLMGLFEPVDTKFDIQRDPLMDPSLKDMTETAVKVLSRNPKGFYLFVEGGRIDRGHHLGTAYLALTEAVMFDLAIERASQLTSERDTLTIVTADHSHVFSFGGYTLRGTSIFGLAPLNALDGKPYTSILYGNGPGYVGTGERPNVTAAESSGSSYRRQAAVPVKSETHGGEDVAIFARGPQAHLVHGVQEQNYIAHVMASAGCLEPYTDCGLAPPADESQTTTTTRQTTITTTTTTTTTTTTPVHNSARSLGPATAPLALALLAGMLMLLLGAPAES
Intestinal-type alkaline phosphatase (Homo sapiens, UniProt P09923), sequence (P09923 whole entry): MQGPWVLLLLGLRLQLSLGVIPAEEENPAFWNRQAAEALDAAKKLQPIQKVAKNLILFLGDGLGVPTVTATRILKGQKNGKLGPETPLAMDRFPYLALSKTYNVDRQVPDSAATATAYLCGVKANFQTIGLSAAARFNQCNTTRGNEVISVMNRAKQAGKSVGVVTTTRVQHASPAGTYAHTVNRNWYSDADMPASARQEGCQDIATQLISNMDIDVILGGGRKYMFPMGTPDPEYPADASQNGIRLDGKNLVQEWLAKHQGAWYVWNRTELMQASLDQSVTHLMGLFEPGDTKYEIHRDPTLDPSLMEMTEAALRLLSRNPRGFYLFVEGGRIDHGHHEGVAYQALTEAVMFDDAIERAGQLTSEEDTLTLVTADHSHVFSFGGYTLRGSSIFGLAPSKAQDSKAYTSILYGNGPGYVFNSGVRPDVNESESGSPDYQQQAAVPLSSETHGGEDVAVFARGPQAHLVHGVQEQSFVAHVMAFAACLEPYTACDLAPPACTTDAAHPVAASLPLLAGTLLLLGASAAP

| Compound | IC50 [1] | IC50 [2] | IC50 (Troponin, cardiac muscle) | CC50 [3] | IC50 [4] | AC50 [5] | AC50 [6] | AC50 [7] | IC50 (Jurkat) | IC50 (Bcl-2-related protein A1) | AC50 (INS1) | AC50 [8] | EC50 (Streptokinase A) | IC50 [9] |
| --- | --- | --- | --- | --- | --- | --- | --- | --- | --- | --- | --- | --- | --- | --- |
| O=c1ccc2c(-c3ccccc3S(=O)(=O)O)c3ccc(O)c(O)c3oc-2c1O [PYROGALLOL RED] | 12.4 µM (active) | > 100 µM (inactive) | 0.558 µM (active) | 100 µM (active) | > 40.8 µM (inactive) | 1.78 µM (active) | 2.63 µM (active) | 0.146 µM (active) |  |  |  |  |  |  |
| CCCCCCCCCCOC(=O)C[n+]1c(COc2ccccc2OC)n(C)c2ccccc21 |  |  |  |  |  |  |  |  | 4.4 µM (active) | 18.4 µM (active) | 1.04 µM (active) | 12.3 µM (active) | > 150 µM (not active) | 15.6 µM (active) |
